We go through 24 compounds from ChEMBL document CHEMBL4257535, “Design, synthesis and biological evaluation of AKT inhibitors bearing a piperidin-4-yl appendant” (Medchemcomm, 2018).

SMILES strings stand for the structures. The source made the active and inactive calls.

The test system of data set [1] is PC-3. Briefly: Antiproliferative activity against human PC3 cells after 72 hrs by MTT assay. Format: functional, cell-based. Conditions: PC-3, 72 h.
For data set [2], the target named is T1, RAC-alpha serine/threonine-protein kinase (Homo sapiens, UniProt P31749). Description: Inhibition of AKT1 (unknown origin) at 1 uM using biotin-labelled STK as substrate measured after 45 mins by HTRF method relative to control.
T1 sequence (P31749 whole entry): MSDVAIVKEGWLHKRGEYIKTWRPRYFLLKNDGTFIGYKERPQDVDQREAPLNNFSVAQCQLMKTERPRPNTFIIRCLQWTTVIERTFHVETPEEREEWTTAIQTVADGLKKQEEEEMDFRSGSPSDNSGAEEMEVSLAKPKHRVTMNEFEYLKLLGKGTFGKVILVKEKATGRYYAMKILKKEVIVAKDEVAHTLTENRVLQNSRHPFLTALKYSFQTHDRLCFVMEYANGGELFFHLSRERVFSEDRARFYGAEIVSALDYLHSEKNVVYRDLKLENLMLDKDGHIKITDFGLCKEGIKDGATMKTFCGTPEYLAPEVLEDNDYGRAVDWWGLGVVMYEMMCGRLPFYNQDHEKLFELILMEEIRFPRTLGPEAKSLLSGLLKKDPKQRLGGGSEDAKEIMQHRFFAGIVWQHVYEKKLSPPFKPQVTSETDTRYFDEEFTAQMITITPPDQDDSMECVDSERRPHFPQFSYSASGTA
Data set [3] concerns the target T1, RAC-alpha serine/threonine-protein kinase. Briefly: Inhibition of AKT1 (unknown origin) at 0.1 uM using biotin-labelled STK as substrate measured after 45 mins by HTRF method relative to control. For orientation: Time-resolved FRET reads energy transfer from a long-lived donor to a nearby acceptor.
The target is the same in data set [4]. Briefly: Inhibition of AKT1 (unknown origin) using biotin-labelled STK as substrate measured after 45 mins by HTRF method.
Data set [5] has the same target. Description: Inhibition of AKT in human PC3 cells assessed as reduction in GSK3beta phosphorylation at 1 to 10 uM after 4 hrs by Western blot analysis. It is filed as cell-based. In general terms: A western blot detects proteins with antibodies after separation by electrophoresis.
The target is the same in data set [6]. Description: Inhibition of AKT1 (unknown origin) at 50 nM using biotin-labelled STK as substrate measured after 45 mins by HTRF method relative to control.
The nature of data set [7]: in vitro. Also noted: dose or concentration left out as unconfirmed. Conditions: human, liver microsomes. Background: Microsomes from liver hold many membrane-bound enzymes, among them those of drug oxidation.
Description: Half life in human liver microsomes at 10 mM preincubated for 10 mins followed by NADPH addition by LC-MS analysis
The nature of data set [8]: in vitro. Also noted: dose or concentration left out as unconfirmed. To be noted: human, liver microsomes. This is another data set of the same source.
Description: Intrinsic clearance in human liver microsomes at 10 mM preincubated for 10 mins followed by NADPH addition and measured after 5 to 60 mins by LC-MS analysis
A short description of data set [9]: in vitro. Set-up: dose or concentration left out as unconfirmed. Conditions: human, liver microsomes. The source holds these as a separate data set.
Description: Stability in human liver microsomes assessed as parent compound remaining at 10 mM preincubated for 10 mins followed by NADPH addition and measured after 60 mins by LC-MS analysis

The term IC50 denotes the concentration that gives 50% inhibition. By inhibition is commonly meant how much of the control response was suppressed. Turning to `O=C(N1CCN(c2ncnc3[nH]ncc23)CC1)C1(c2ccc(F)cc2)CCNCC1`, the 50% inhibitory concentration (IC50) in data set [1] is greater than 40 µM. The compound further registered an inhibition in data set [2] of 7.4%.
`O=C(N1CCN(c2ncnc3[nH]nc(Br)c23)CC1)C1(c2ccc(Cl)cc2)CCNCC1`: the results for the IC50 in [1] and in data set [4] were 9.8 µM and 0.0269 µM, respectively. The inhibition in [3] was found to be 86.7%; in [2], 96.7%.
Compound `O=C(N1CCN(c2ncnc3[nH]cnc23)CC1)C1(c2ccc(Br)cc2)CCNCC1` had an IC50 in data set [1] greater than 40 µM. In addition, in [2], the inhibition came to 68%.
`O=C(N1CCN(c2ncnc3[nH]nc(Br)c23)CC1)C1(c2ccc(F)cc2)CCNCC1` returned an IC50 in [1] of 36.6 µM. Besides, the inhibition in data set [3] came out at 53.3%; in data set [2], 93.2%.
On to `CCn1c(-c2nonc2N)nc2c(C#CC(C)(C)O)ncc(OC[C@H]3CCCNC3)c21` [GSK-690693], for which half-maximal inhibition in data set [1] (IC50) required 14.1 µM. For the same compound, the inhibition in data set [3] was 98.5%; in data set [2] it was 99.5%. Besides, the inhibition entry in [5] is “Active”.
`O=C(Cc1ccc(Cl)cc1)N1CCN(c2ncnc3[nH]cc(Br)c23)CC1` returned an IC50 in data set [1] of 21.1 µM. The compound further displayed an inhibition in [6] of 69.7%.
In the case of `O=C(N1CCN(c2ncnc3[nH]nc(Cl)c23)CC1)C1(c2ccc(Cl)cc2)CCNCC1`, the IC50 in data set [1] amounted to 19.4 µM; in data set [4], 0.0666 µM. Also, the inhibition is 83.4% in data set [3] and 91.9% in data set [2].
As for `O=C(N1CCN(c2ncnc3[nH]cnc23)CC1)C1(c2ccc(F)cc2)CCNCC1`, the IC50 in data set [1] is greater than 40 µM. The inhibition in data set [2] was 94.2%.
In general, half-life refers to the time needed for the level to fall by half in the phase considered. As usually defined, the CLint scaled is the rate of metabolic loss divided by the concentration. Usually microsomal CLint stands for the rate of metabolic loss divided by the concentration. With `O=C(O)Cc1ccccc1Nc1c(Cl)cccc1Cl` [DICLOFENAC], the half-life in [7] was found to be 10.2 min. In [8], the intrinsic clearance (CLint scaled) amounted to 123 mL/min/kg and the microsomal CLint was 136 µL/min/mg.
Turning to `O=C(N1CCN(c2ncnc3[nH]nc(Cl)c23)CC1)C1(c2ccc(Br)cc2)CCNCC1`, the IC50 in [1] came to 32.4 µM; in [4], 0.0329 µM. Besides, the inhibition in [3] worked out at 84.5%; in data set [2], 95.4%.
By fraction remaining is commonly meant the share of the starting amount still present when the sample was taken. As for `C[C@]12CC[C@H]3[C@@H](CCC4=CC(=O)CC[C@@]43C)[C@@H]1CC[C@@H]2O` [TESTOSTERONE], the half-life in data set [7] came to 16.9 min. In [8], the CLint scaled was 74 mL/min/kg and the microsomal CLint was determined as 82.2 µL/min/mg. In [9], this compound had a fraction remaining at 1 h of 8.1%.
Turning to `O=C(N1CCN(c2ncnc3ccccc23)CC1)C1(c2ccc(F)cc2)CCNCC1`, half-maximal inhibition in [1] (IC50) required 13.7 µM. For the same compound, the inhibition in [2] was 23%.
Take `O=C(N1CCN(c2ncnc3[nH]nc(Br)c23)CC1)C1(c2ccc(Cl)c(Cl)c2)CCNCC1`: the IC50 in [1] was 10.3 µM; in [4], 0.0305 µM. The inhibition in [3] is 90.9%; in [2] it was 93.8%.
The compound `O=C(N1CCN(c2ncnc3[nH]ncc23)CC1)C1(c2ccc(Cl)cc2)CCNCC1` showed a half-inhibitory concentration (IC50) in data set [1] greater than 40 µM. In [2], this compound returned an inhibition of 38.7%.
On to `O=C(N1CCN(c2ncnc3ccccc23)CC1)C1(c2ccc(Cl)c(Cl)c2)CCNCC1`, for which, in [1], it took 14 µM to reach half-maximal inhibition (IC50). In addition, the inhibition in data set [2] was determined as 21.9%.
`O=C(N1CCN(c2ncnc3[nH]ncc23)CC1)C1(c2ccc(Br)cc2)CCNCC1`: the half-inhibitory concentration (IC50) in data set [1] was greater than 40 µM. In addition, the inhibition in [2] came out at 11.6%.
The compound `O=C(N1CCN(c2ncnc3[nH]nc(Cl)c23)CC1)C1(c2ccc(F)cc2)CCNCC1` displayed an IC50 in data set [1] of 37.4 µM. The inhibition in [3] came out at 60.9%; in [2], 86.7%.
As to `O=C(N1CCN(c2ncnc3ccccc23)CC1)C1(c2ccc(Cl)cc2)CCNCC1`, in [1], the IC50 was greater than 40 µM. In addition, in [2], the inhibition amounted to 34.2%.
On the same counts, the results for `O=C(N1CCN(c2ncnc3[nH]ncc23)CC1)C1(c2ccc(Cl)c(Cl)c2)CCNCC1` are greater than 40 µM and 52.1%.
In data set [1], `O=C(Cc1ccc(Cl)c(Cl)c1)N1CCN(c2ncnc3[nH]cc(Br)c23)CC1` registered an IC50 of 31.5 µM. The inhibition in [6] worked out at 65.5%.
Take `O=C(N1CCN(c2ncnc3ccccc23)CC1)C1(c2ccc(Br)cc2)CCNCC1`: the midpoint of inhibition in data set [1], the IC50, lay at 22.8 µM. The same compound came in with an inhibition in data set [2] of 6.1%.
In the case of `O=C(N1CCN(c2ncnc3[nH]nc(Br)c23)CC1)C1(c2ccc(Br)cc2)CCNCC1`, the figures for the IC50 in [1] and in data set [4] were 15 µM and 0.0519 µM, respectively. For the same compound, the inhibition was 90.6% in data set [3] and 96.5% in data set [2].
Regarding `O=C(N1CCN(c2ncnc3[nH]cnc23)CC1)C1(c2ccc(Cl)c(Cl)c2)CCNCC1`, the IC50 in data set [1] stood at 33.9 µM. Besides, the inhibition in data set [2] came out at 51.4%.
Take `O=C(N1CCN(c2ncnc3[nH]cnc23)CC1)C1(c2ccc(Cl)cc2)CCNCC1`: the IC50 in data set [1] was greater than 40 µM. The compound further yielded an inhibition in data set [2] of 45.6%.
